According to EP0693071B1, “NEW CARBOXYLIC-ACID ESTERS OF 2-AMINO-7-(1,3-DIHYDROXY-2-PROPOXYMETHYL)PURINE, THE PREPARATION OF SUCH ESTERS AND THEIR USE” (HOECHST AKTIENGESELLSCHAFT, priority 1993, dated 1994):
Read-outs that look alike come from different tables or passages of the source.

System: Herpes simplex 1 Virus (HSV-1)
Assay: Activity against systemic HSV-1 infection in NMRI mice, oral treatment
Type: in vivo, NMRI-Mäuse
Conditions: for ED50: read-out: IC50 (nach Reed und Muench); for mittlere Überlebenszeit (Tage): oral
From the text: Wirkung gegen systemische Herpes simplex 1 Virus (HSV-1) Infektion: NMRI-Mäuse, spezifisch pathogenfrei, im Gewicht von 15 bis 18 g wurden intraperitoneal mit HSV-1 infiziert und anschließend mit den erfindungsgemäßen Verbindungen oral therapiert. Die Behandlung erfolgte erstmals 3 Stunden nach der Infektion und wurde zweimal täglich über 4 Tage fortgesetzt. Der Behandlungserfolg wurde anhand des Krankheitsverlaufes und der Überlebensrate gegenüber der unbehandelten Infektionskontrolle bestimmt. Letztere erhielt anstelle der erfindungsgemäßen Verbindungen physiologische Kochsalzlösung appliziert. Die Beobachtungszeit betrug zwei Wochen. Tabelle 1 zeigt die Ergebnisse dieser Untersuchung.

[1] = Human alphaherpesvirus 1, 336 h, NMRI mouse, HSV-1 i.p. infection, oral treatment, 9 doses (first 3 h after infection, then twice daily over 4 days), 2 weeks observation

| Structure (SMILES) | ED50 [1] [µmol/kg] | also measured |
| --- | --- | --- |
| CC(C)(C)C(=O)OCC(COC(=O)C(C)(C)C)OCn1cnc2nc(N)ncc21 [Beispiel 1, 2-Amino-7-[(1,3-bis-pivaloyloxy-2-propoxy)methyl]purin] | 19.7 | – |
| CCCCC(=O)OCC(COC(=O)CCCC)OCn1cnc2nc(N)ncc21 [Beispiel 2, 2-Amino-7-[(1,3-bis-valeroyloxy-2-propoxy)methyl]purin] | 12 | mittlere Überlebenszeit (Tage) (Dosierung 9 x 10 µmol/kg): 9 ± 1,7 Tage |
| CCCCC(=O)OCC(CO)OCn1cnc2nc(N)ncc21 (stereo not shown) [Beispiel 3, 2-Amino-7-[(1-hydroxy-3-valeroyloxy-2-propoxy)methyl]purin] | < 9.3 | mittlere Überlebenszeit (Tage) (Dosierung 9 x 9,3 µmol/kg): 10 Tage |
| COCC(=O)OCC(COC(=O)COC)OCn1cnc2nc(N)ncc21 [Beispiel 6, 2-Amino-7-[(1,3-bis-methoxyacetoxy-2-propoxy)methyl]purin] | < 10 | mittlere Überlebenszeit (Tage) (Dosierung 9 x 10 µmol/kg): 9 Tage |
| CCOCC(=O)OCC(COC(=O)COCC)OCn1cnc2nc(N)ncc21 [Beispiel 7, 2-Amino-7-[(1,3-bis-ethoxyacetoxy-2-propoxy)methyl]purin] | 13.2 | – |
| Nc1ncc2c(ncn2COC(COC(=O)C2CCCCC2)COC(=O)C2CCCCC2)n1 [Beispiel 9, 2-Amino-7-[(1,3-bis-cyclohexancarbonyloxy-2-propoxy)methyl]purin] | 5.6 | – |
| Nc1ncc2c(ncn2COC(CO)COC(=O)C2CCCCC2)n1 (stereo not shown) [Beispiel 10, 2-Amino-7-[(1-cyclohexancarbonyloxy-3-hydroxy-2-propoxy)methyl] purin] | 3.6 | – |
| Nc1ncc2c(ncn2COC(COC(=O)c2ccccc2)COC(=O)c2ccccc2)n1 [Beispiel 11, 2-Amino-7-[(1,3-bis-benzoyloxy-2-propoxy)methyl]purin] | 17.3 | – |
| Nc1ncc2c(ncn2COC(COC(=O)Cc2ccccc2)COC(=O)Cc2ccccc2)n1 [Beispiel 12, 2-Amino-7-[(1,3-bis-phenylacetoxy-2-propoxy)methyl]purin] | – | ED50 (Human alphaherpesvirus 1, po, 336 h): < 10 µmol/kg |
| Nc1ncc2c(ncn2COC(COC(=O)c2ccsc2)COC(=O)c2ccsc2)n1 [Beispiel 13] | 5.6 | – |
| Nc1ncc2c(ncn2COC(CO)COC(=O)c2ccsc2)n1 (stereo not shown) [Beispiel 14] | 11.5 | – |
| Nc1ncc2c(ncn2COC(COC(=O)Cc2cccnc2)COC(=O)Cc2cccnc2)n1 [Beispiel 15] | 10 | – |
| Nc1ncc2c(ncn2COC(CO)CO)n1 [Formel 1, R1=R2=H (=Verb. der Formel 1'), 2-Amino-7-[(1,3-dihydroxy-2-propoxy)methyl]purin, reference compound] | 34.5 | – |
